Data on one compound can be found in patent US20250177359A1, “COMPOUNDS FOR USE IN THE TREATMENT OF CANCER AND INFLAMMATORY CONDITIONS” (priority 2022, published 2025).

One data set has as its target T1, PARP2 (Homo sapiens, UniProt Q9UGN5).
T1 construct: made in house
Briefly: biochemical. In kind it is biochemical. The settings on record: NAD+ consumption assay; > less than 50% inhibition at highest concentration, >> no inhibition. As for the experimental part:
(§1) All starting materials, reagents, and solvents were purchased from common commercial suppliers and were used as such without further purification. […] Organic solutions were dried over anhydrous Na2SO4 and concentrated with rotary evaporator at low pressure. All the reactions were routinely checked by thin-layer chromatography (TLC) on silica gel 60F254 (Merck) and visualized by using UV and iodine. Flash chromatography separations were carried out on Merck silica gel 60 (mesh 230-400) or by using automated Buchi Reveleris X2-UV with column FP Ecoflex Si 12 g. Yields were of purified products and were not optimized. ^1HNMR spectra were recorded at 400 MHz (Bruker Avance DRX-400), while ^13CNMR spectra were recorded at 101 MHz (Bruker Avance DRX-400). Chemical shifts are given in ppm (δ) relative to TMS. […] Mating constant (J) are reported in Hz. The purity of the tested compounds was evaluated by HPLC analysis using Jasco LC-4000 instrument equipped with a UV-Visible Diode Array Jasco-MD4015 (Jasco Corporation, Tokyo, Japan), and XTerra MS C18 column, 5 μm×4.6 mm×150 mm (Waters Corporation, Massachusetts, USA). Chromatograms were analyzed by ChromNAV2.0 Chromatography Data System software. […] The peak retention time (ret. time) is given in minutes. […] 1-Isobutoxy-4-methoxy-2-nitrobenzene (113). Isobutyl alcohol (0.6 mL, 6.43 mmol) was added, under nitrogen atmosphere at 0° C., to a suspension of NaH (0.26 g, 6.43 mmol) in dry DMF. After 15 minutes, 1-fluoro-4-methoxy-2-nitrobenzene 112 (1 g, 5.84 mmol) was also added and the reaction mixture was stirred at 80° C. for 4 h. […] (2-Isobutoxy-5-methoxyphenyl)amine (114). Zn (1.57 g, 24 mmol) and NH4C1 (2.45 g, 40 mmol) were added to a solution of 113 (0.46 g, 2 mmol) in acetone/H2O (50 mL, ratio 5:1). The reaction mixture was stirred at 60° C. for 3 h and, then, it was filtered over celite. […] N-(2,5-diethoxyphenyl)thiourea (55). […] N-(2-isobutoxy-5-methoxyphenyl)thiourea (115). […] A solution of Br2 (0.2 mL, 3.3 mmol) in CHCl3 (5 mL) was slowly added to a suspension of 45 (0.6 g, 3.3 mmol) in CHCl3 (13 mL), at 0° C. The reaction mixture was stirred at r.t. for 4 h and, then, a 10% solution of Na2SO3 in water was added to the mixture. […] 4,7-Diethoxy-1,3-benzothiazol-2-amine (66). […] 4-Isobutoxy-7-methoxy-1,3-benzothiazol-2-amine (116). […] Hydrazine hydrate (0.23 mL, 4.77 mmol) and CH3COOH (0.12 mL, 2.1 mmol) were added to a suspension of 56 (0.29 g, 1.59 mmol) in ethylene glycol (8 mL), and the reaction mixture was stirred for 24 h at 125° C. […] 6-Ethyl-2-hydrazino-1,3-benzothiazole (69). […] 6-Ispropyl-2-hydrazino-1,3-benzothiazole (70). […] 2-Hydrazino-4,7-dimethoxy-1,3-benzothiazole (73). […] 2-Hydrazino-5,7-dimethoxy-1,3-benzothiazole (75). […] 2-Hydrazino-4,7-Diethoxy-1,3-benzothiazole (77). […] 2-Hydrazino-5-methyl[1,3]thiazolo[5,4-b]pyridine (100). […] A solution of 67 (0.13 g, 0.65 mmol) in formic acid (5 mL) was refluxed for 10 h. The reaction mixture was then poured into ice/water and the pH was neutralized using a saturated solution of NaHCO3.

The next data set addresses T2, TNKS2 (Homo sapiens, UniProt Q9H2K2).
T2 sequence (Q9H2K2 1-1166): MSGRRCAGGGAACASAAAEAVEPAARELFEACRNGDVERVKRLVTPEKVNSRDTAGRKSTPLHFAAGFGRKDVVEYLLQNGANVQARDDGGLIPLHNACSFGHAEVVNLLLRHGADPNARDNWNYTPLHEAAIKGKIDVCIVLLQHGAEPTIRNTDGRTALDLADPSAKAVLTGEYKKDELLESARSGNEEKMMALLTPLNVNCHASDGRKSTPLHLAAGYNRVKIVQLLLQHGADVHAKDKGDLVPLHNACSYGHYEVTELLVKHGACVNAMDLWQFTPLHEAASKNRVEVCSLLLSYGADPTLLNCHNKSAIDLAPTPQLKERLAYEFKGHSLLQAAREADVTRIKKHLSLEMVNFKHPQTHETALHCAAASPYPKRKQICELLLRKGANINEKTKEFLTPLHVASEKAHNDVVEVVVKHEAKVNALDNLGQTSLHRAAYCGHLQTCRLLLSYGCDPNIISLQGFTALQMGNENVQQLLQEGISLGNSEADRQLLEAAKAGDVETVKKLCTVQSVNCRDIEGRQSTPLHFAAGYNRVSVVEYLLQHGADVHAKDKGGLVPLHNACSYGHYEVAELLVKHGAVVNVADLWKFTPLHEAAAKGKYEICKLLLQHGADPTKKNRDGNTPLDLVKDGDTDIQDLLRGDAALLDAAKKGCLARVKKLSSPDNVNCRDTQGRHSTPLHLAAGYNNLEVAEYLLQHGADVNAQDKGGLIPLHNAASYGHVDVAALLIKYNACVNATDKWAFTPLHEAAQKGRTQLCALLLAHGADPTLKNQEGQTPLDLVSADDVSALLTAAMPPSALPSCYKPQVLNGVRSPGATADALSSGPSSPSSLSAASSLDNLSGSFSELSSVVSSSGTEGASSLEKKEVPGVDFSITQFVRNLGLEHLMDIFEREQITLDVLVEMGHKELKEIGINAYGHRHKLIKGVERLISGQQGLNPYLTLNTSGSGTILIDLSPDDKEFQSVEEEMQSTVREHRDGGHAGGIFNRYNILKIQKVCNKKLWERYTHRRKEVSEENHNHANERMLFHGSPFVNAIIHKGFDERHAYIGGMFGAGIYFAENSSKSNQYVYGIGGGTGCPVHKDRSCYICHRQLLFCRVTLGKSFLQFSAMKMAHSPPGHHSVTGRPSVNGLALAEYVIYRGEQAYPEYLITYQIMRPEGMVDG
The experiment in a line: biochemical. The settings on record: read-out: TNKS2 IC50; NAD+ consumption assay; > less than 50% inhibition at highest concentration, >> no inhibition. The procedure:
as §1

Data set [1] can be described thus: Toxicity using the WST-1 assay.

One may read the IC50 as the concentration that inhibits the measured activity by half.

T1 sequence (Q9UGN5 whole entry): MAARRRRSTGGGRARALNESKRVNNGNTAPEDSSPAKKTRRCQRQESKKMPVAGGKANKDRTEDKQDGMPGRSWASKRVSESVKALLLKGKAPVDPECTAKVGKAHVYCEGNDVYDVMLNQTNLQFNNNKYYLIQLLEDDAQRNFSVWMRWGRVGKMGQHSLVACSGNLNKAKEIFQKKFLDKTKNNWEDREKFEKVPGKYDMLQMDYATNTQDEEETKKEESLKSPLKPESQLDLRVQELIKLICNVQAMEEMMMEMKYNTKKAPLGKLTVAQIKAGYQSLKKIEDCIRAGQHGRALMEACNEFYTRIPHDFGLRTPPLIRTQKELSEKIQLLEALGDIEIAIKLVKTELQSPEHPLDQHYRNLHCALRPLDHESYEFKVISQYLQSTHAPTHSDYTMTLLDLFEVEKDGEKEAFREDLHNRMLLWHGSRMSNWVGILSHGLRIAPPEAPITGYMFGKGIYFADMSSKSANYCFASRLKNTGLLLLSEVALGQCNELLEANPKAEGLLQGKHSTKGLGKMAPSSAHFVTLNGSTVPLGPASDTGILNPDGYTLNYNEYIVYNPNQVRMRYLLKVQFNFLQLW

For `Oc1ccc(O)c2c1sc1nncn12` [Compound 17, [1,2,4]Triazolo[3,4-b][1,3]benzothiazol-5,8-diol], the IC50 at PARP2 was determined as 0.24 µM; on TNKS2, 3.1 µM. Moreover, the “toxicity (WST-1 assay)” value in data set [1] is listed as “dose dependent toxicity”.
